Columns and labels:
[1] = molecular target: T1, ΔF508-CFTR (Homo sapiens, UniProt P13569, DEL508-508); experiment: CFTR cell surface levels using HRP-tagged ΔF508-CFTR expressing CFBE cells, intrinsic corrector capacity; type: cell-based; design: % Activation: concentration or dose not given beside the values
T1 construct: host or cells: CFBE41o-, doxycycline-inducible
In short: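 Surface ΔF508-CFTR was measured as HRP chemiluminescence from an extracellular-loop-4 tag, expressed as percent activity between DMSO and a […] corrector control.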

[2] = molecular target: T1, ΔF508-CFTR; experiment: CFTR cell surface levels using HRP-tagged ΔF508-CFTR expressing CFBE cells, in the presence of a co-corrector; type: cell-based
In short: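 Chemiluminescent read-out of surface HRP (15 min, dark) after PBS washes. Activity is normalized as 100×(sample−DMSO)/(3 μM co-corrector alone−DMSO).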

[3] = HRP-tagged ΔF508-CFTR expressing CFBE41o- cells, compound alone (intrinsic corrector capacity), 20 hours at 33° C.
[4] = HRP-tagged ΔF508-CFTR expressing CFBE41o- cells, compound alone (intrinsic corrector capacity), 20 hours at 33° C., read-out: EC50
[5] = HRP-tagged ΔF508-CFTR CFBE cells, in the presence of 3 μM co-corrector
[6] = HRP-tagged ΔF508-CFTR CFBE cells, in the presence of 3 μM co-corrector, read-out: EC50

T1 sequence (P13569 with tags, fused parts or gaps DEL508-508): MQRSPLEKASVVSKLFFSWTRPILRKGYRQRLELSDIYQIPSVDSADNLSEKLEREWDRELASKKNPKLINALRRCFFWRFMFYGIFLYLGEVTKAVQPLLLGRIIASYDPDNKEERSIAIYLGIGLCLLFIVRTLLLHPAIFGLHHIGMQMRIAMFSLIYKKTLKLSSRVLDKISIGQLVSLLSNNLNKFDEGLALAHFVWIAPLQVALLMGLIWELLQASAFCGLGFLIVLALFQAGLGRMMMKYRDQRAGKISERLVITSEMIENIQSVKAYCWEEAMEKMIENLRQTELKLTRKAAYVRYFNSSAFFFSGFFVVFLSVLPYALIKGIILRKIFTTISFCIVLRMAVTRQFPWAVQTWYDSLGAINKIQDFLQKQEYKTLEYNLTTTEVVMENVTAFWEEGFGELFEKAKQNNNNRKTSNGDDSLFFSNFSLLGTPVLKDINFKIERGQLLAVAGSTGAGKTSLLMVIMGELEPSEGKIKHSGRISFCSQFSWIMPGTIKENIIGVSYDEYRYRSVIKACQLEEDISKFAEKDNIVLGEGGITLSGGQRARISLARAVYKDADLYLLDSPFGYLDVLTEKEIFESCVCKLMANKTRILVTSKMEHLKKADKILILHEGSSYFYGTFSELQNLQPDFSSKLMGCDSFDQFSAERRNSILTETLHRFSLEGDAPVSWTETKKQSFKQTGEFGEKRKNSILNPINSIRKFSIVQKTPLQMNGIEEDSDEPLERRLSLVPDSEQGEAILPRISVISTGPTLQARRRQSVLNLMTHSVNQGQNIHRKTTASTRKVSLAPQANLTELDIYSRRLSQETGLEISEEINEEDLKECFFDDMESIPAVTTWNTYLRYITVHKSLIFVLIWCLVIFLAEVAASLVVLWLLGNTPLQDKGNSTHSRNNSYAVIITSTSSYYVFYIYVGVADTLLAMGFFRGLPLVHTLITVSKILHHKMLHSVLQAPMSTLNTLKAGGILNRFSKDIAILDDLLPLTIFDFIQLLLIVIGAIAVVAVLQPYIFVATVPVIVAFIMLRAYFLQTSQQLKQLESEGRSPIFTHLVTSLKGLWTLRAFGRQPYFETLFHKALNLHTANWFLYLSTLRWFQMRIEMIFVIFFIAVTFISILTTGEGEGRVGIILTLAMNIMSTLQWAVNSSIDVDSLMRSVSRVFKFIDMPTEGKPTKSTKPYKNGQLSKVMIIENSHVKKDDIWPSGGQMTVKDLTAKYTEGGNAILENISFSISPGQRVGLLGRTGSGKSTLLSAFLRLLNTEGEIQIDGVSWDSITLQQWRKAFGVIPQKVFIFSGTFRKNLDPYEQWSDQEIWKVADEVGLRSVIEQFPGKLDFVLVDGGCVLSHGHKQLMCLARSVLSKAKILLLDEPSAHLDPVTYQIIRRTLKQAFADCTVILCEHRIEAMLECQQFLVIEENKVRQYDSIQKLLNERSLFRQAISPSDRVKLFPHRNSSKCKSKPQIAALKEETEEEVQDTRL

**Q.** Which results are given for `O=C(NS(=O)(=O)C1CC1)c1cc(N2CCC(N3CCOCC3)CC2)c2c(C3CCC3)nn(-c3ccccc3)c2n1` [Compound 436, 3-cyclobutyl-N-(cyclopropanesulfonyl)-4-[4-(morpholin-4-yl)piperidin-1-yl]-1-phenyl-1H-pyrazolo[3,4-b]pyridine-6-carboxamide]?
**A.** % Activation [1, 3]: 393.3%; EC50 [1, 4]: 0.344 µM; % Activation [2, 5]: 568.6%; EC50 [2, 6]: 0.0711 µM

**Q.** How did the “% Activation” value [1, 3] turn out when `CCS(=O)(=O)NC(=O)c1cc(N2CCC(N3CCOCC3)CC2)c2c(C3CCC3)nn(-c3ccccc3)c2n1` [Compound 437, 3-cyclobutyl-N-(ethanesulfonyl)-4-[4-(morpholin-4-yl)piperidin-1-yl]-1-phenyl-1H-pyrazolo[3,4-b]pyridine-6-carboxamide] was run?
**A.** 353.8%

**Q.** What about the “% Activation” value [2, 5] of the same compound?
**A.** 563.64%

**Q.** For `COCCS(=O)(=O)NC(=O)c1cc(N2CCC(N3CCOCC3)CC2)c2c(C3CCC3)nn(-c3ccccc3)c2n1` [Compound 438, 3-cyclobutyl-N-(2-methoxyethanesulfonyl)-4-[4-(morpholin-4-yl)piperidin-1-yl]-1-phenyl-1H-pyrazolo[3,4-b]pyridine-6-carboxamide], which “% Activation” value [1, 3] is on record?
**A.** 337%

**Q.** What about the EC50 [1, 4] of the same compound?
**A.** 0.392 µM

**Q.** What about the “% Activation” value [2, 5] of the same compound?
**A.** 541.5%

**Q.** And the EC50 [2, 6]?
**A.** 0.38 µM

**Q.** How did the “% Activation” value [1, 3] turn out when `COC[C@@H]1CCCN1C1CCN(S(=O)(=O)NC(=O)c2cc(N3CCC(N4CCOCC4)CC3)c3c(C4CCC4)nn(-c4ccccc4)c3n2)CC1` [Compound 439, 3-cyclobutyl-N-{4-[(2S)-2-(methoxymethyl)pyrrolidin-1-yl]piperidine-1-sulfonyl}-4-[4-(morpholin-4-yl)piperidin-1-yl]-1-phenyl-1H-pyrazolo[3,4-b]pyridine-6-carboxamide] was run?
**A.** 166.8%

**Q.** What about the EC50 [1, 4] of the same compound?
**A.** 0.55 µM

**Q.** And the “% Activation” value [2, 5]?
**A.** 374.6%

**Q.** What about the EC50 [2, 6] of the same compound?
**A.** 0.381 µM

**Q.** `CC(C)Oc1nn(C2CCCCC2)c2nc(C(=O)NS(=O)(=O)N(C)C)cc(-c3ccc(CN4CCN(C)CC4)cc3)c12` [Compound 442, 1-cyclohexyl-N-(dimethylsulfamoyl)-4-{4-[(4-methylpiperazin-1-yl)methyl]phenyl}-3-[(propan-2-yl)oxy]-1H-pyrazolo[3,4-b]pyridine-6-carboxamide] was tested. Which “% Activation” value [1, 3] did it give?
**A.** 146.8%

**Q.** And the EC50 [1, 4]?
**A.** 0.307 µM

**Q.** And the “% Activation” value [2, 5]?
**A.** 342%

**Q.** What about the EC50 [2, 6] of the same compound?
**A.** 1.11 µM

**Q.** For `CC(C)Oc1nn(C2CCCCC2)c2nc(C(=O)NS(=O)(=O)N(C)C)cc(-c3ccc(CN4CCCC4)cc3)c12` [Compound 444, 1-cyclohexyl-N-(dimethylsulfamoyl)-3-[(propan-2-yl)oxy]-4-{4-[(pyrrolidin-1-yl)methyl]phenyl}-1H-pyrazolo[3,4-b]pyridine-6-carboxamide], which “% Activation” value [1, 3] is on record?
**A.** 162.5%

**Q.** What about the EC50 [1, 4] of the same compound?
**A.** 0.345 µM

**Q.** What about the “% Activation” value [2, 5] of the same compound?
**A.** 361.3%

**Q.** What about the EC50 [2, 6] of the same compound?
**A.** 0.235 µM

**Q.** With `CS(=O)(=O)NC(=O)c1cc(N2CCC(N3CCCCC3)CC2)c2c(C3CCC3)nn(-c3ccc(F)cc3)c2n1` [Compound 450, 4-([1,4'-bipiperidin]-1'-yl)-3-cyclobutyl-1-(4-fluorophenyl)-N-(methanesulfonyl)-1H-pyrazolo[3,4-b]pyridine-6-carboxamide] as the compound, how does the “% Activation” value [1, 3] read?
**A.** 253.5%

**Q.** What about the EC50 [1, 4] of the same compound?
**A.** 0.617 µM

**Q.** What about the “% Activation” value [2, 5] of the same compound?
**A.** 443.25%

**Q.** What about the EC50 [2, 6] of the same compound?
**A.** 0.246 µM

**Q.** With `O=C(NS(=O)(=O)C1CCOC1)c1cc(N2CCC(N3CCCCC3)CC2)c2c(C3CCC3)nn(-c3ccc(F)cc3)c2n1` (stereo not shown) [Compound 451, 4-([1,4'-bipiperidin]-1'-yl)-3-cyclobutyl-1-(4-fluorophenyl)-N-(oxolane-3-sulfonyl)-1H-pyrazolo[3,4-b]pyridine-6-carboxamide] as the compound, how does the “% Activation” value [1, 3] read?
**A.** 184.1%

**Q.** What about the EC50 [1, 4] of the same compound?
**A.** 1.7 µM

**Q.** And the “% Activation” value [2, 5]?
**A.** 391%

**Q.** And the EC50 [2, 6]?
**A.** 2.1 µM

**Q.** What does the source list for `O=C(NS(=O)(=O)C1CCOC1)c1cc(N2CCC(CCN3CCOCC3)CC2)c2c(C3CCC3)nn(-c3ccc(F)cc3)c2n1` (stereo not shown) [Compound 452, 3-cyclobutyl-1-(4-fluorophenyl)-4-{4-[2-(morpholin-4-yl)ethyl]piperidin-1-yl}-N-(oxolane-3-sulfonyl)-1H-pyrazolo[3,4-b]pyridine-6-carboxamide]?
**A.** % Activation [1, 3]: 239.8%; EC50 [1, 4]: 0.408 µM; % Activation [2, 5]: 478.25%; EC50 [2, 6]: 0.942 µM

**Q.** `O=C(NS(=O)(=O)N1CCC(N2CCCCC2)CC1)c1cc(N2CCC(N3CCOCC3)CC2)c2c(C3CCC3)nn(-c3ccccc3)c2n1` [Compound 453, N-([1,4'-bipiperidine]-1'-sulfonyl)-3-cyclobutyl-4-[4-(morpholin-4-yl)piperidin-1-yl]-1-phenyl-1H-pyrazolo[3,4-b]pyridine-6-carboxamide] was tested. Which “% Activation” value [1, 3] did it give?
**A.** 149.3%

**Q.** And the EC50 [1, 4]?
**A.** 0.403 µM

**Q.** What about the “% Activation” value [2, 5] of the same compound?
**A.** 385.1%

**Q.** And the EC50 [2, 6]?
**A.** 0.319 µM

**Q.** For `O=C(NS(=O)(=O)CCCN1CCOCC1)c1cc(N2CCC(N3CCCCC3)CC2)c2c(C3CCC3)nn(-c3ccccc3)c2n1` [Compound 454, 4-([1,4′-bipiperidin]-1′-yl)-3-cyclobutyl-N-[3-(morpholin-4-yl)propane-1-sulfonyl]-1-phenyl-1H-pyrazolo[3,4-b]pyridine-6-carboxamide], which EC50 [1] is on record?
**A.** 1.67 µM

**Q.** What about the “% Activation” value [1, 3] of the same compound?
**A.** 168.1%

**Q.** And the EC50 [2]?
**A.** 0.639 µM

**Q.** And the “% Activation” value [2, 5]?
**A.** 430.2%

**Q.** What does the source list for `CCOC(=O)N1CCC(NS(=O)(=O)NC(=O)c2cc(N3CCC(CN4CCCC4)CC3)c3c(C4CCC4)nn(-c4ccccc4)c3n2)CC1` [Compound 457, ethyl 4-{[(3-cyclobutyl-1-phenyl-4-{4-[(pyrrolidin-1-yl)methyl]piperidin-1-yl}-1H-pyrazolo[3,4-b]pyridine-6-carbonyl)sulfamoyl]amino}piperidine-1-carboxylate]?
**A.** % Activation [1, 3]: 272.2%; EC50 [1, 4]: 0.129 µM; % Activation [2, 5]: 508%; EC50 [2, 6]: 0.139 µM

**Q.** How did the “% Activation” value [1, 3] turn out when `COC[C@H]1CCCN1C1CCN(S(=O)(=O)NC(=O)c2cc(N3CCC(CN4CCCC4)CC3)c3c(C4CCC4)nn(-c4ccccc4)c3n2)CC1` [Compound 458, 3-cyclobutyl-N-{4-[(2R)-2-(methoxymethyl)pyrrolidin-1-yl]piperidine-1-sulfonyl}-1-phenyl-4-{4-[(pyrrolidin-1-yl)methyl]piperidin-1-yl}-1H-pyrazolo[3,4-b]pyridine-6-carboxamide] was run?
**A.** 124.4%

**Q.** And the EC50 [1, 4]?
**A.** 0.794 µM

**Q.** What about the “% Activation” value [2, 5] of the same compound?
**A.** 282.8%

**Q.** And the EC50 [2, 6]?
**A.** 0.92 µM

**Q.** Which results are given for `O=C(NS(=O)(=O)N1CCC(F)CC1)c1cc(N2CCC(CN3CCCC3)CC2)c2c(C3CCC3)nn(-c3ccccc3)c2n1` [Compound 459, 3-cyclobutyl-N-(4-fluoropiperidine-1-sulfonyl)-1-phenyl-4-{4-[(pyrrolidin-1-yl)methyl]piperidin-1-yl}-1H-pyrazolo[3,4-b]pyridine-6-carboxamide]?
**A.** % Activation [1, 3]: 225.65%; EC50 [1, 4]: 0.149 µM; % Activation [2, 5]: 388.87%; EC50 [2, 6]: 0.0961 µM

**Q.** `CN1CCN(S(=O)(=O)NC(=O)c2cc(N3CCC(CN4CCCC4)CC3)c3c(C4CCC4)nn(-c4ccccc4)c3n2)CC1` [Compound 460, 3-cyclobutyl-N-(4-methylpiperazine-1-sulfonyl)-1-phenyl-4-{4-[(pyrrolidin-1-yl)methyl]piperidin-1-yl}-1H-pyrazolo[3,4-b]pyridine-6-carboxamide] was tested. Which “% Activation” value [1, 3] did it give?
**A.** 125.8%

**Q.** What about the EC50 [1, 4] of the same compound?
**A.** 0.596 µM

**Q.** What about the “% Activation” value [2, 5] of the same compound?
**A.** 306.75%

**Q.** What about the EC50 [2, 6] of the same compound?
**A.** 0.505 µM

**Q.** Which results are given for `CC1(S(=O)(=O)NC(=O)c2cc(N3CCC(CN4CCCC4)CC3)c3c(C4CCC4)nn(-c4ccccc4)c3n2)CC1` [Compound 461, 3-cyclobutyl-N-(1-methylcyclopropane-1-sulfonyl)-1-phenyl-4-{4-[(pyrrolidin-1-yl)methyl]piperidin-1-yl}-1H-pyrazolo[3,4-b]pyridine-6-carboxamide]?
**A.** % Activation [1, 3]: 212.3%; EC50 [1, 4]: 0.209 µM; % Activation [2, 5]: 364.1%; EC50 [2, 6]: 0.177 µM

**Q.** Which “% Activation” value [1, 3] does the source give for `O=C(NS(=O)(=O)C1CC1)c1cc(N2CCC(CN3CCCC3)CC2)c2c(C3CCC3)nn(-c3ccccc3)c2n1` [Compound 462, 3-cyclobutyl-N-(cyclopropanesulfonyl)-1-phenyl-4-{4-[(pyrrolidin-1-yl)methyl]piperidin-1-yl}-1H-pyrazolo[3,4-b]pyridine-6-carboxamide] here?
**A.** 317.4%

**Q.** And the EC50 [1, 4]?
**A.** 0.776 µM

**Q.** And the “% Activation” value [2, 5]?
**A.** 495.1%

**Q.** And the EC50 [2, 6]?
**A.** 0.107 µM

**Q.** Which results are given for `CCS(=O)(=O)NC(=O)c1cc(N2CCC(CN3CCCC3)CC2)c2c(C3CCC3)nn(-c3ccccc3)c2n1` [Compound 463, 3-cyclobutyl-N-(ethanesulfonyl)-1-phenyl-4-{4-[(pyrrolidin-1-yl)methyl]piperidin-1-yl}-1H-pyrazolo[3,4-b]pyridine-6-carboxamide]?
**A.** % Activation [1, 3]: 263.9%; EC50 [1, 4]: 0.419 µM; % Activation [2, 5]: 490.6%; EC50 [2, 6]: 0.194 µM
